One test has as its system HepG2-A16-CD81EGFP cells. To be noted: for IC50: read-out: Tox_IC50, HepG2 cytotoxicity.
The subject of test [1] is Plasmodium berghei (Pb-Luc) exoerythrocytic-stage parasites. The following applies: for normalized signal at concentration 10 / normalized signal at concentration 0.000508053 / normalized signal at concentration 0.00152416 / normalized signal at concentration 0.00457247 / normalized signal at concentration 0.0137174 / normalized signal at concentration 0.0411523 / normalized signal at concentration 0.123457 / normalized signal at concentration 0.37037 / normalized signal at concentration 1.11111 / normalized signal at concentration 3.33333 / normalized signal at 0.000508053 (first series) / normalized signal at 0.000508053 (second series) / normalized signal at 0.00152416 (first series) / normalized signal at 0.00152416 (second series) / normalized signal at 0.00457247 (first series) / normalized signal at 0.00457247 (second series) / normalized signal at 0.0137174 (first series) / normalized signal at 0.0137174 (second series) / normalized signal at 0.0411523 (first series) / normalized signal at 0.0411523 (second series) / normalized signal at 0.123457 (first series) / normalized signal at 0.123457 (second series) / normalized signal at 0.37037 (first series) / normalized signal at 0.37037 (second series) / normalized signal at 1.11111 (first series) / normalized signal at 1.11111 (second series) / normalized signal at 3.33333 (first series) / normalized signal at 3.33333 (second series) / normalized signal at 10 (first series) / normalized signal at 10 (second series): fraction of control; for IC50: read-out: PbLuc_IC50; for normalized signal at 0.000508053 (first series): concentration 0.000508053, first replicate series; for normalized signal at 0.000508053 (second series): concentration 0.000508053, second replicate series; for normalized signal at 0.00152416 (first series): concentration 0.00152416, first replicate series; for normalized signal at 0.00152416 (second series): concentration 0.00152416, second replicate series; for normalized signal at 0.00457247 (first series): concentration 0.00457247, first replicate series; for normalized signal at 0.00457247 (second series): concentration 0.00457247, second replicate series; for normalized signal at 0.0137174 (first series): concentration 0.0137174, first replicate series; for normalized signal at 0.0137174 (second series): concentration 0.0137174, second replicate series; for normalized signal at 0.0411523 (first series): concentration 0.0411523, first replicate series; for normalized signal at 0.0411523 (second series): concentration 0.0411523, second replicate series; for normalized signal at 0.123457 (first series): concentration 0.123457, first replicate series; for normalized signal at 0.123457 (second series): concentration 0.123457, second replicate series; for normalized signal at 0.37037 (first series): concentration 0.37037, first replicate series; for normalized signal at 0.37037 (second series): concentration 0.37037, second replicate series; for normalized signal at 1.11111 (first series): concentration 1.11111, first replicate series; for normalized signal at 1.11111 (second series): concentration 1.11111, second replicate series; for normalized signal at 3.33333 (first series): concentration 3.33333, first replicate series; for normalized signal at 3.33333 (second series): concentration 3.33333, second replicate series; for normalized signal at 10 (first series): concentration 10, first replicate series; for normalized signal at 10 (second series): concentration 10, second replicate series.

[2] abbreviates: sheet 2nd round, maximal inhibition in dose response.
Where [3] appears, read: 2nd round, maximal inhibition in dose series.
The mark [4] stands for this setting: 2nd round, Broad DOS compounds, unit not printed (dose series head 10 to 0.000508053).

Read-outs that look alike come from different tables or passages of the source. A value given as a limit tells only on which side of the number the result lay.

`C[C@@H]1CCCCO[C@@H](CN(C)S(=O)(=O)c2ccc(F)cc2)[C@@H](C)CN([C@@H](C)CO)C(=O)c2cc(N(C)C)ccc2O1` [BRD-K74261250-001-01-9]: in the test on HepG2-A16-CD81EGFP cells (sheet 2nd round), the IC50 is more than 10 µM. Further, the “Tox_max_inhibition (%)” value in the test with HepG2-A16-CD81EGFP cells (setting [2]) is recorded as 6.44%. For the same molecule, in test [1] (first series of dose-response columns), the “normalized signal at concentration 10” value is reported as 0.8467. Further, in test [1] (first series), the “normalized signal at concentration 0.000508053” value came to 1.172, the “normalized signal at concentration 0.00152416” value came to 0.9183, the “normalized signal at concentration 0.00457247” value came out at 0.77 and the “normalized signal at concentration 0.0137174” value is 1.0389. For the same molecule, in test [1] (first series), the “normalized signal at concentration 0.0411523” value worked out at 0.8236, the “normalized signal at concentration 0.123457” value was found to be 0.9547, the “normalized signal at concentration 0.37037” value is reported as 1.005 and the “normalized signal at concentration 1.11111” value came to 0.9156. The “normalized signal at concentration 3.33333” value in test [1] (first series) is 1.13. For the same molecule, in test [1] (sheet 2nd round, Broad compounds, dose response), the IC50 was more than 10 µM. The “normalized signal at concentration 10” value in test [1] (second series of dose-response columns) was 0.7483. Moreover, in test [1] (second series), the “normalized signal at concentration 0.000508053” value came out at 1.01, the “normalized signal at concentration 0.00152416” value is listed as 0.834, the “normalized signal at concentration 0.00457247” value was determined as 1.154 and the “normalized signal at concentration 0.0137174” value amounted to 0.7879. In addition, in test [1] (second series), the “normalized signal at concentration 0.0411523” value came out at 0.9255, the “normalized signal at concentration 0.123457” value came out at 1.124, the “normalized signal at concentration 0.37037” value is reported as 0.8451 and the “normalized signal at concentration 1.11111” value was 0.9426. Also, in test [1] (second series), the “normalized signal at concentration 3.33333” value was 1.1. Also, the “PbLuc_max_inhibition (%)” value in test [1] (setting [2]) was determined as 25%.

Take `COc1ccc(NC(=O)N(C)C[C@H]2Oc3c(NC(=O)CCCCCC(=O)Nc4ccccc4N)cccc3C(=O)N([C@H](C)CO)C[C@H]2C)cc1` [BRD-K75018854-001-01-2]: in the test with HepG2-A16-CD81EGFP cells (setting [3]), the “Tox_max_inhibition (%)” value turned out to be 8%. Also, the IC50 with HepG2-A16-CD81EGFP cells (2nd round, unit inferred) was more than 10 µM. Besides, the “PbLuc_max_inhibition (%)” value in test [1] (setting [3]) is on record as 27%. In addition, in test [1], the “normalized signal at 0.000508053 (first series)” value came to 1.05, the “normalized signal at 0.000508053 (second series)” value came out at 0.8619, the “normalized signal at 0.00152416 (first series)” value stood at 0.9022 and the “normalized signal at 0.00152416 (second series)” value stood at 0.7297. Moreover, in test [1], the “normalized signal at 0.00457247 (first series)” value was found to be 1.1676, the “normalized signal at 0.00457247 (second series)” value is 0.8627, the “normalized signal at 0.0137174 (first series)” value is reported as 0.9808 and the “normalized signal at 0.0137174 (second series)” value stood at 0.929. Further, in test [1], the “normalized signal at 0.0411523 (first series)” value is recorded as 1.1704, the “normalized signal at 0.0411523 (second series)” value was 0.8231, the “normalized signal at 0.123457 (first series)” value is reported as 1.053 and the “normalized signal at 0.123457 (second series)” value is 1.0322. In addition, in test [1], the “normalized signal at 0.37037 (first series)” value is given as 0.9438, the “normalized signal at 0.37037 (second series)” value is on record as 0.8176, the “normalized signal at 1.11111 (first series)” value is on record as 0.9278 and the “normalized signal at 1.11111 (second series)” value is recorded as 0.8826. Besides, in test [1], the “normalized signal at 3.33333 (first series)” value amounted to 1.001, the “normalized signal at 3.33333 (second series)” value came out at 1.022, the “normalized signal at 10 (first series)” value was determined as 0.9917 and the “normalized signal at 10 (second series)” value was 1.205. Besides, in test [1] (setting [4]), the IC50 is more than 10 µM.

For the molecule `O=C(Nc1ccccc1F)N1CCCCN2[C@@H](CO)[C@@H](c3ccc(/C=C/c4ccccc4)cc3)[C@@H]2C1` [BRD-K75724375-001-01-5], in the test on HepG2-A16-CD81EGFP cells (sheet "2nd round"), the IC50 was more than 10 µM and the “Tox_max_inhibition (%)” value turned out to be 3.77%. The “normalised signal at concentration 0.000508053 (first series)” value in test [1] (concentration 0.000508053, first series) worked out at 0.9105. In addition, the “normalised signal at concentration 0.000508053 (second series)” value in test [1] (concentration 0.000508053, second series) came out at 0.9278. Also, in test [1] (concentration 0.00152416, first series), the “normalised signal at concentration 0.00152416 (first series)” value is on record as 1.073. Also, in test [1] (concentration 0.00152416, second series), the “normalised signal at concentration 0.00152416 (second series)” value stood at 0.9037. Besides, the “normalised signal at concentration 0.00457247 (first series)” value in test [1] (concentration 0.00457247, first series) was 0.819. Also, the “normalised signal at concentration 0.00457247 (second series)” value in test [1] (concentration 0.00457247, second series) is recorded as 0.9578. Further, in test [1] (concentration 0.0137174, first series), the “normalised signal at concentration 0.0137174 (first series)” value is recorded as 0.8286. For the same molecule, the “normalised signal at concentration 0.0137174 (second series)” value in test [1] (concentration 0.0137174, second series) stood at 0.9852. Besides, the “normalised signal at concentration 0.0411523 (first series)” value in test [1] (concentration 0.0411523, first series) turned out to be 0.8408. In test [1] (concentration 0.0411523, second series), the “normalised signal at concentration 0.0411523 (second series)” value worked out at 0.7698. Besides, in test [1] (concentration 0.123457, first series), the “normalised signal at concentration 0.123457 (first series)” value is reported as 0.9337. Further, the “normalised signal at concentration 0.123457 (second series)” value in test [1] (concentration 0.123457, second series) was found to be 1.085. In test [1] (concentration 0.37037, first series), the “normalised signal at concentration 0.37037 (first series)” value was 0.7789. For the same molecule, the “normalised signal at concentration 0.37037 (second series)” value in test [1] (concentration 0.37037, second series) is listed as 1.01. For the same molecule, in test [1] (concentration 1.11111, first series), the “normalised signal at concentration 1.11111 (first series)” value is on record as 1.025. Further, the “normalised signal at concentration 1.11111 (second series)” value in test [1] (concentration 1.11111, second series) was 0.8416. Besides, in test [1] (concentration 3.33333, first series), the “normalised signal at concentration 3.33333 (first series)” value was 0.8686. Further, the “normalised signal at concentration 3.33333 (second series)” value in test [1] (concentration 3.33333, second series) came out at 0.672. Besides, in test [1] (concentration 10, first series of dose columns), the “normalised signal at concentration 10 (first series)” value came to 0.5018. Also, the “normalised signal at concentration 10 (second series)” value in test [1] (concentration 10, second series of dose columns) is recorded as 0.4819. The IC50 in test [1] (sheet "2nd round", Broad compounds, dose response top concentration 10) was more than 10 µM. The “PbLuc_max_inhibition (%)” value in test [1] (sheet "2nd round") turned out to be 52%.

For the molecule `C[C@@H]1CN([C@H](C)CO)C(=O)c2ccccc2-c2ccccc2CO[C@H]1CN(C)C(=O)[C@H](Cc1ccccc1)N(C)C` [BRD-K75961033-001-01-7], the “Tox_max_inhibition (%)” value in the test on HepG2-A16-CD81EGFP cells (setting [3]) is recorded as 5.71%. In addition, the IC50 with HepG2-A16-CD81EGFP cells (2nd round, unit inferred) is more than 10 µM. The “PbLuc_max_inhibition (%)” value in test [1] (setting [3]) is given as 45%. Also, in test [1], the “normalized signal at 0.000508053 (first series)” value turned out to be 1.06, the “normalized signal at 0.000508053 (second series)” value turned out to be 0.8091, the “normalized signal at 0.00152416 (first series)” value is 0.9571 and the “normalized signal at 0.00152416 (second series)” value was found to be 0.6896. Moreover, in test [1], the “normalized signal at 0.00457247 (first series)” value is 0.9675, the “normalized signal at 0.00457247 (second series)” value worked out at 0.699, the “normalized signal at 0.0137174 (first series)” value was 1.117 and the “normalized signal at 0.0137174 (second series)” value stood at 0.795. In test [1], the “normalized signal at 0.0411523 (first series)” value is listed as 0.9735, the “normalized signal at 0.0411523 (second series)” value was 0.8267, the “normalized signal at 0.123457 (first series)” value came to 0.9249 and the “normalized signal at 0.123457 (second series)” value was found to be 0.6648. Also, in test [1], the “normalized signal at 0.37037 (first series)” value came to 0.9974, the “normalized signal at 0.37037 (second series)” value is recorded as 0.9501, the “normalized signal at 1.11111 (first series)” value amounted to 1.014 and the “normalized signal at 1.11111 (second series)” value was 0.8135. In addition, in test [1], the “normalized signal at 3.33333 (first series)” value came out at 0.9327, the “normalized signal at 3.33333 (second series)” value worked out at 0.5506, the “normalized signal at 10 (first series)” value worked out at 0.7489 and the “normalized signal at 10 (second series)” value was 0.6892. Also, in test [1] (setting [4]), the IC50 was more than 10 µM.

Values taken from paper PMC4890880 (ACS infectious diseases, 2016).
